From US20220354911A1, “TREATMENT OF TUMORS BY A COMBINATION OF AN ONCOLYTIC ADENOVIRUS, A CDK4/6 INHIBITOR AND A FURTHER THERAPEUTICALLY ACTIVE AGENT” (KLINIKUM RECHTS DER ISAR DER TECHNISCHEN UNIVERSITÄT MÜNCHEN, priority 2019, published 2022)

Legend:
T24 cells = test: Potency assay (SRB), XVir-N-31, Palbociclib and JQ-1; type: cell-based, human
Description: 5000 T24 cells were seeded in 12 well plates and grown in 1 ml RPMI-Medium containing 10% FCS. Next day cells were treated with 500 nM Palbociclib and 300 nM JQ-1. 24 hours post treatment cells were infected with indicated MOIs of XVir-N-31 in 200 μl RPMI-Medium containing no FCS. After 1 hour 800 μl RPMI-Medium containing 10% FCS were added into each well. In addition, 500 nM Palbociclib and 300 nM JQ-1 were added to the medium. SRB-Staining took place 5 days post infection. Mock treated cells were set 100% cell survival.

SK-N-MC cells = test: Potency assay (SRB), XVir-N-31, Abemaciclib and JQ-1; type: cell-based; conditions: CDK 4/6 (Abemaciclib) resistant SK-N-MC cells, 200 nM Abemaciclib + 500 nM JQ-1, XVir-N-31, 5 days post infection
Description: 100,000 SK-N-MC cells/well were seeded in 12-well plates and grown in RPMI Medium containing 10% FCS at 5% CO2 at 37° C. Cells were treated with 200 nM Abemaciclib+500 nM JQ-1 24 hours before and again 1 hour post infection by adding appropriate amount to the medium. Infection of XVir-N-31 took place in 500 μl in RPMI Medium without serum. SRB-Staining took place 5 days post infection. Mock treated cells were set 100% cell survival.

XVir-N-31 = XVir-N-31 fiber DNA qPCR in glioblastoma cells, JQ1 and Ribociclib; type: cell-based, Mastadenovirus, Type C, Serotype 5; conditions: U87 24 h.p.i., LN229 and T98G 48 h.p.i.
Description: 1×10^5 cells were seeded in 6 well plates in DMEM medium. The following day the cells were treated with the 500 nM LEE011 and 50 nM JQ1. At the next morning the cells were infected with 20 MOI for U87 and LN229, and 50 MOI for T98G respectively. One hour after infection DMEM Medium containing the inhibitors was added onto the cells. After each time point (4, 24, 48 hours) the cells were washed once with PBS and 200 μl of SDS DNA Lysis Buffer was added. The cells were incubated with Proteinase K for 1 hour before undergoing a phenol-chloroform-isoamylalcohol purification. The DNA was diluted in 1×TE buffer and the concentration of the DNA was determined using a Nanodrop. For each sample a solution of 10 ng/μl was prepared and a RT-qPCR using 50 ng of DNA and a GoTaq Master mix. Specific Fiber forward and reverse primers were used and for the calculation of the Δ ct value specific Actin primers were used as well. For each sample 3 Fiber and 2 Actin values were measured. The calculation was done in excel and each 24 and 48 hours was calculated based on its 4 hours value (initial viral entry, before replication).

UMUC-3 and RT112 = test: FACS cell cycle analysis, JQ-1 and Palbociclib; type: cell-based, human; conditions: 100 or 300 nM JQ-1, 500 nM Palbociclib
Description: For such purpose, 5×10^4 cells UMUC-3 and RT112, respectively, were seeded in 6-well plates and 24 hours later treated with appropriate inhibitors. 1 day later, at approximately 80% confluency, cells were washed with PBS, trypsinized, washed again and fixated with icecold 80% ethanol. For cell cycle analysis, samples were incubated with the DNA-intercalating dye 7-aminoactinomycine D (7-AAD) and measured via FACS analysis. Evaluation of measured data was performed via the software FlowJo.

[1] = tested on: RB, phospho-RB, E2F-1, Hexim1; test: Western blot of cellular target proteins after JQ-1 and Palbociclib; type: cell-based, human
Description: 1-2×10^6 UMUC-3 or RT-112 cells were seeded in 10 cm plates in DMEM medium and 24 hours post seeding treated with respective small molecular inhibitors. 24 hours post treatment, lysates of total proteins were taken using an SDS-buffer. BCA Assay was applied to adjust equivalent protein concentrations. Then, protein samples were supplemented with Lämmli buffer and separated via SDS-PA gelelectrophoresis on 10% PA-Gels. Samples were blotted onto PVDF membranes using a BioRAD Wet Tank System. These membranes were blocked with TBS-Tween buffer containing 5% Skim milk powder for 1 hour at room temperature. Incubation with primary antibodies was conducted over night at 4° C. and with HRP-conjugated secondary antibodies for 1 hour at room temperature. Chemiluminescence was detected using ECL prime (Pierce) with the ChemiDoc Imaging System (BioRad). Figures were designed in Adobe® Illustrator and evaluation was performed with ImageLab.

Cc1sc2c(c1C)C(c1ccc(Cl)cc1)=N[C@@H](CC(=O)OC(C)(C)C)c1nnc(C)n1-2 [JQ-1, thieno-triazolo-1-4-diazepine]
cell killing of XVir-N-31, JQ-1 monotherapy (T24 cells; T24, 300 nM JQ-1 alone, 10 and 20 MOI): did not increase cell killing | cell killing capacity of XVir-N-31 in combination with Palbociclib (T24 cells; T24, 500 nM Palbociclib, 300 nM JQ-1, low MOIs, 5 days post infection): increased the cell killing capacity | cell killing on addition of JQ-1 (SK-N-MC cells): did not increase cell killing | XVir-N-31 replication (relative fiber DNA) (XVir-N-31): high increase in replication | cell cycle (UMUC-3 and RT112): no significant influence on the cell cycle | RB, phospho-RB or E2F-1 protein level ([1]; UMUC-3 and RT-112, 0.2 μM and 0.5 μM, 24 hours post treatment, monotherapy or with Palbociclib): did not show any effects | Hexim1 ([1]; UMUC-3 and RT-112, 24 hours post treatment): downregulated
